These results are taken from patent US7829560B2, “1,4-disubstituted naphthalenes as inhibitors of P38 MAP kinase” (Arqule, Inc., priority 2004, dated 2010).

The structures appear in SMILES notation.

One series addresses T1, p38α (Homo sapiens, UniProt Q16539).
T1 construct: p38 MAP Kinases are recombinant human full-length proteins with an amino-terminal GST fusion; GST (N); purchased Upstate Biotechnology Inc; host or cells: E. coli
The series can be described thus: p38 MAP Kinase assay: inhibition of ATF2 phosphorylation, ELISA. It is filed as biochemical. Conditions: ATF2 phosphorylation; read-out: [ENZ] P38 ALPHA, IC50, ELISA. Summed up:
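In vitro phosphorylation of ATF2 at Thr69 by recombinant human GST-p38 MAP kinase, read by anti-phospho-ATF2 ELISA at 450 nm. Enzyme and compound pre-incubated 15 min at RT, then 30 min reaction at 37 °C with 40 μM ATP and 1.25 μM ATF2; buffer with or without 1% HSA (Method II or I).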

Series [1] has as its system TNFα release from THP-1 cells. The series can be described thus: Inhibition of TNFα release from LPS-stimulated THP-1 cells, ELISA. It counts as cell-based. Conditions: Homo sapiens, THP-1, THP-1 cells, read-out: [CELL] THP-1, IC50, TNF ALPHA, ELISA. In outline: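 TNFα released into supernatant after 18 h of 10 μg/ml LPS stimulation was quantified by ELISA and IC50 taken as 50% reduction by non-linear regression. THP-1 cells (10^6/ml; medium with 10% FBS, serum-free or 1% HSA) saw compound for 30 min at 37 °C beforehand; final DMSO ≤0.5%.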
In general terms: ELISA stands for enzyme-linked immunosorbent assay.

One may read the IC50 as the concentration needed to halve the response being measured. One may read the melting point as the temperature, or range, at which the solid turns liquid.

T1 sequence (Q16539 whole entry, the tested form may be a part): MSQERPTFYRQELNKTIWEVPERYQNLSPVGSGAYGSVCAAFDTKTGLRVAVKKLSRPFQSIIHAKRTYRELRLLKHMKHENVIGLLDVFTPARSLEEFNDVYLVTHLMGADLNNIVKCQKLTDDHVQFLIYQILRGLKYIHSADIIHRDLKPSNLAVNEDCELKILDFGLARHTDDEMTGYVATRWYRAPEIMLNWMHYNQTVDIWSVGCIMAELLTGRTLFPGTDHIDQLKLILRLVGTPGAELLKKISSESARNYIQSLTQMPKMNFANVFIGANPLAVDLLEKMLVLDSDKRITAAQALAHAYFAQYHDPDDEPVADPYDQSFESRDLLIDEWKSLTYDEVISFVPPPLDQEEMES

In turn, `O=C(Nc1ccc(Oc2ccnc(NC3(CO)CCCC3)n2)c2ccccc12)c1cc(F)cc(N2CCOCC2)c1` [Compound B350, 3-Fluoro-N-{4-[(2-{[1-(hydroxymethyl)cyclopentyl]amino}pyrimidin-4-yl)oxy]-1-naphthyl}-5-morpholin-4-ylbenzamide] yielded a melting point of 115 to 117 °C. For the same molecule, the IC50 on p38α was 9.5 nM. The IC50 in series [1] stood at 68.1 nM.

Regarding `COC(CN(C)c1nccc(Oc2ccc(NC(=O)c3cc(F)cc(N4CCOCC4)c3)c3ccccc23)n1)OC` [Compound B351, N-[4-({2-[(2,2-Dimethoxyethyl)(methyl)amino]pyrimidin-4-yl}oxy)-1-naphthyl]-3-fluoro-5-morpholin-4-ylbenzamide], the melting point was 92 to 94 °C. The IC50 at p38α is 27.1 nM. Moreover, the half-inhibitory concentration (IC50) in series [1] stood at 274 nM.

The molecule `C#CCN(C)c1nccc(Oc2ccc(NC(=O)c3cc(F)cc(N4CCOCC4)c3)c3ccccc23)n1` [Compound B352, 3-Fluoro-N-[4-({2-[methyl(prop-2-yn-1-yl)amino]pyrimidin-4-yl}oxy)-1-naphthyl]-5-morpholin-4-ylbenzamide] returned a melting point of 97 to 98 °C. Also, the IC50 on p38α was 32.5 nM. In addition, the IC50 in series [1] was 518 nM.

For the molecule `CN1CCC(Nc2nccc(Oc3ccc(NC(=O)c4cc(F)cc(N5CCOCC5)c4)c4ccccc34)n2)CC1` [Compound B362, 3-Fluoro-N-[4-({2-[(1-methylpiperidin-4-yl)amino]pyrimidin-4-yl}oxy)-1-naphthyl]-5-morpholin-4-ylbenzamide], the melting point was in the range of 128 to 129 °C. The IC50 at p38α is 7.8 nM. In addition, the IC50 in series [1] worked out at 48.7 nM.

Consider `O=C(Nc1ccc(Oc2ccnc(N3CCC3)n2)c2ccccc12)c1cc(F)cc(N2CCOCC2)c1` [Compound B363, N-{4-[(2-azetidin-1-ylpyrimidin-4-yl)oxy]-1-naphthyl}-3-fluoro-5-morpholin-4-ylbenzamide], for which the melting point lay in the range of 196 to 197 °C. For the same molecule, the IC50 on p38α came to 5.8 nM. For the same molecule, the IC50 in series [1] worked out at 78 nM.

In the case of `C[C@@H]1CN(c2nccc(Oc3ccc(NC(=O)c4cc(F)cc(N5CCOCC5)c4)c4ccccc34)n2)C[C@H](C)O1` [Compound B364, N-[4-({2-[(2R,6S)-2,6-Dimethylmorpholin-4-yl]pyrimidin-4-yl}oxy)-1-naphthyl]-3-fluoro-5-morpholin-4-ylbenzamide], the melting point lay in the range of 118 to 120 °C. Further, at p38α, the IC50 turned out to be 27.3 nM. Also, the IC50 in series [1] was found to be 412 nM.

`CN(C)C1CCN(c2nccc(Oc3ccc(NC(=O)c4cc(F)cc(N5CCOCC5)c4)c4ccccc34)n2)C1` (stereo not drawn) [Compound B365, N-[4-({2-[3-(Dimethylamino)pyrrolidin-1-yl]pyrimidin-4-yl}oxy)-1-naphthyl]-3-fluoro-5-morpholin-4-ylbenzamide] registered a melting point of 106 to 108 °C. Also, at p38α, the IC50 came to 28 nM. In addition, the IC50 in series [1] worked out at 56.7 nM.

As for `CC(C)(C)OC(=O)NC1CCN(c2nccc(Oc3ccc(NC(=O)c4cc(F)cc(N5CCOCC5)c4)c4ccccc34)n2)CC1` [Compound B366, t-Butyl-{1-[4-({4-[(3-fluoro-5-morpholin-4-ylbenzoyl)amino]-1-naphthyl}oxy)pyrimidin-2-yl]piperidin-4-yl}-carbamate], the melting point lay within 214 to 216 °C. For the same molecule, the IC50 on p38α was found to be 28.3 nM. In addition, in series [1], the IC50 amounted to 386 nM.

Molecule `CN(C(=N)N)c1nccc(Oc2ccc(NC(=O)c3cc(F)cc(N4CCOCC4)c3)c3ccccc23)n1` [Compound B367, N-[4-({2-[[amino(imino)methyl](methyl)amino]pyrimidin-4-yl}oxy)-1-naphthyl]-3-fluoro-5-morpholin-4-ylbenzamide] had a melting point of 155 to 157 °C. The IC50 at p38α amounted to 18.2 nM. Besides, the IC50 in series [1] came out at 649 nM.

As for `O=C1CN(c2nccc(Oc3ccc(NC(=O)c4cc(F)cc(N5CCOCC5)c4)c4ccccc34)n2)CCN1` [Compound B368, 3-Fluoro-5-morpholin-4-yl-N-(4-{[2-(3-oxopiperazin-1-yl)pyrimidin-4-yl]oxy}-1-naphthyl)benzamide], the melting point was 108 to 110 °C. Further, the IC50 at p38α is 19.7 nM. For the same molecule, the IC50 in series [1] worked out at 141 nM.

As to `O=C(Nc1ccc(Oc2ccnc(NCC3OCCO3)n2)c2ccccc12)c1cc(F)cc(N2CCOCC2)c1` [Compound B369, N-[4-({2-[(1,3-dioxolan-2-ylmethyl)amino]pyrimidin-4-yl}oxy)-1-naphthyl]-3-fluoro-5-morpholin-4-ylbenzamide], the melting point was 122 to 124 °C. Besides, the IC50 at p38α is 2.9 nM. In addition, the IC50 in series [1] stood at 33.3 nM.

Consider `COCCN(C)c1nccc(Oc2ccc(NC(=O)c3cc(F)cc(N4CCOCC4)c3)c3ccccc23)n1` [Compound B370, 3-Fluoro-N-[4-({2-[(2-methoxyethyl)(methyl)amino]pyrimidin-4-yl}oxy)-1-naphthyl]-5-morpholin-4-ylbenzamide], for which the melting point is 96 to 98 °C. The concentration for half-maximal inhibition (IC50) on p38α was 21.1 nM. Further, the IC50 in series [1] turned out to be 330 nM.

The molecule `O=C(Nc1ccc(Oc2ccnc(NC3CCCCC3)n2)c2ccccc12)c1cc(F)cc(N2CCCCC2)c1` [Compound B371, N-(4-{[2-(cyclohexylamino)pyrimidin-4-yl]oxy}-1-naphthyl)-3-fluoro-5-piperidin-1-ylbenzamide] displayed a melting point of 118 to 120 °C. Besides, at p38α, the IC50 stood at 26.4 nM. In series [1], the IC50 stood at 37.1 nM.

With `CN1CCN(c2nccc(Oc3ccc(NC(=O)c4cc(F)cc(N5CCCCC5)c4)c4ccccc34)n2)CC1` [Compound B372, 3-Fluoro-N-(4-{[2-(4-methylpiperazin-1-yl)pyrimidin-4-yl]oxy}-1-naphthyl)-5-piperidin-1-ylbenzamide], the melting point was in the range of 182 to 184 °C. Further, the IC50 on p38α was determined as 8.4 nM. Also, the IC50 in series [1] was found to be 217 nM.

In turn, `COCCNc1nccc(Oc2ccc(NC(=O)c3cc(F)cc(N4CCCCC4)c3)c3ccccc23)n1` [Compound B374, 3-Fluoro-N-[4-({2-[(2-methoxyethyl)amino]pyrimidin-4-yl}oxy)-1-naphthyl]-5-piperidin-1-ylbenzamide] came in with a melting point of 87 to 88 °C. Moreover, the IC50 at p38α came to 4.3 nM. Also, the IC50 in series [1] was determined as 147 nM.

Molecule `O=C(Nc1ccc(Oc2ccnc(N3CCC4(CC3)OCCO4)n2)c2ccccc12)c1cc(F)cc(N2CCCCC2)c1` [Compound B378, N-(4-{[2-(1,4-Dioxa-8-azaspiro[4.5]dec-8-yl)pyrimidin-4-yl]oxy}-1-naphthyl)-3-fluoro-5-piperidin-1-ylbenzamide] came in with a melting point of 195 to 196 °C. Further, the IC50 at p38α stood at 17.1 nM. Moreover, the IC50 in series [1] stood at 225 nM.

For the molecule `O=C(Nc1ccc(Oc2ccnc(-n3ccnc3)n2)c2ccccc12)c1cc(F)cc(N2CCCCC2)c1` [Compound B379], the melting point lay within 175 to 176 °C. Further, the IC50 at p38α was 15.1 nM. The IC50 in series [1] was found to be 530 nM.

The molecule `N#CNc1nccc(Oc2ccc(NC(=O)c3cc(F)cc(N4CCCCC4)c3)c3ccccc23)n1` [Compound B380, N-(4-{[2-(Cyanoamino)pyrimidin-4-yl]oxy}-1-naphthyl)-3-fluoro-5-piperidin-1-ylbenzamide] showed a melting point of 160 to 162 °C. In addition, on p38α, the IC50 is 6.6 nM. Moreover, the IC50 in series [1] is more than 1000 nM.
